Measurements as given in the Deep4Chem optical property database.

Assay: solvent given as SMILES

COc1ccc2c3c(c4ccc(OC)cc4c2c1)C(C)(C)c1sccc1-3
absorption maximum (in C1CCCCC1): 391 nm

O=C1C=C(Nc2ccc(F)cc2)C(=O)c2ccccc21
absorption maximum (in CCCCCC): 445 nm
absorption maximum (in CO): 461 nm

F[Si](c1ccccc1)(c1ccccc1)c1c2ccccc2cc2ccccc12
absorption maximum (in C1CCOC1): 393 nm
absorption maximum (in ClC(Cl)Cl): 394 nm

CC1=[N+]2C(=C(c3c4ccccc4c(-c4ccccc4)c4ccccc34)c3ccc(C)n3[B-]2(F)F)C=C1
absorption maximum (in CC#N): 514 nm
absorption maximum (in CCCCCC): 516 nm
absorption maximum (in CCO): 516 nm
absorption maximum (in CN(C)C=O): 517 nm
absorption maximum (in Cc1ccccc1): 519 nm
absorption maximum (in ClCCl): 518 nm

CC(C)(C)c1ccc(C(C)(C)C)c(N2C(=O)c3cccc4c(-c5ccc(-c6ccc([N+](=O)[O-])cc6)s5)ccc(c34)C2=O)c1
absorption maximum (in CO): 393 nm
absorption maximum (in CS(C)=O): 400 nm
absorption maximum (in Cc1ccccc1): 392 nm

Cc1nc2cccc(-c3nc4ccc(Cl)cc4o3)c2c(=O)[nH]1
absorption maximum (in CN(C)C=O): 310 nm

CC1(C)C(/C=C/C2=C(Oc3ccc(CCN=C=S)cc3)C(=C/C=C3/N(CCCS(=O)(=O)[O-])c4ccccc4C3(C)C)/CCC2)=[N+](CCCS(=O)(=O)[O-])c2ccccc21
absorption maximum (in CO): 765 nm

CCOC(=O)c1cc(C(=O)OCC)c2cc(N)ccc2n1
absorption maximum (in CCO): 421 nm

Nc1ccc2nc(-c3ccccc3)c(=O)oc2c1
absorption maximum (in c1ccccc1): 402 nm

FC(F)(F)C(F)(F)C(F)(F)C1=NC2=C(c3ccc4ccc5cccc6ccc3c4c56)C=C3c4cc(-c5ccc6ccc7cccc8ccc5c6c78)c5nc(C(F)(F)C(F)(F)C(F)(F)F)nc6c(-c7ccc8ccc9cccc%10ccc7c8c9%10)cc(c4c56)=C4C=C(c5ccc6ccc7cccc8ccc5c6c78)C(=N1)C2C34 (stereo not drawn)
absorption maximum (in C1CCOC1): 524 nm
absorption maximum (in Cc1ccccc1): 560 nm

N#C[Se]CCCCCOc1ccc2ccc(=O)oc2c1
absorption maximum (in C1CCCCC1): 321 nm
absorption maximum (in C1CCOC1): 322 nm
absorption maximum (in C1COCCO1): 319 nm
absorption maximum (in CC#N): 321 nm
absorption maximum (in CCCCCCC): 319 nm
absorption maximum (in CCO): 323 nm
absorption maximum (in CN(C)C=O): 322 nm
absorption maximum (in CO): 322 nm
absorption maximum (in O): 324 nm
absorption maximum (in OCCO): 326 nm

C1=C(c2ccccc2)B(c2ccccc2)Nc2c1ccc1ccccc21
absorption maximum (in C1CCCCC1): 365 nm

FC(F)(F)c1cc2n(n1)[B-]1(c3ccccc3Oc3ccccc31)[n+]1ccc3ccccc3c1-2
absorption maximum (in C1CCCCC1): 375 nm
absorption maximum (in Cc1ccccc1): 378 nm
absorption maximum (in ClCCl): 372 nm

CCN(CC)c1ccc2cc(-c3cn4ccccc4n3)c(=O)oc2c1
absorption maximum (in C1CCOC1): 408 nm
absorption maximum (in CC#N): 421 nm
absorption maximum (in CCO): 424 nm
absorption maximum (in CCOC(C)=O): 407 nm
absorption maximum (in CN(C)C=O): 425 nm
absorption maximum (in CO): 423 nm
absorption maximum (in CS(C)=O): 428 nm
absorption maximum (in Cc1ccccc1): 407 nm
absorption maximum (in ClC(Cl)Cl): 425 nm
absorption maximum (in ClCCl): 429 nm

CCCC1(CCC)c2ccccc2-c2ccc(-c3ccc(C(C)(C)C)cc3)cc21
absorption maximum (in C1CCCCC1): 314 nm

COc1ccc(-c2ccc(-c3ccc(OC)cc3)c3nc(-c4ccccc4)c(-c4ccccc4)nc23)cc1
absorption maximum (in ClC(Cl)Cl): 366 nm

COc1ccc(/C=C/c2ccncn2)cc1
absorption maximum (in ClCCl): 338 nm

CC(C)(C)c1cc2c3cc(C(C)(C)C)c(-c4cc5cc6c7cccc8cccc(c9cc(C(C)(C)C)cc(c5cc4C(C)(C)C)c96)c87)cc3cc3c4cccc5cccc(c(c1)c23)c54
absorption maximum (in CC1CCCCC1): 446 nm

F[B-]1(F)OC(c2ccccc2)=CC(c2ccccc2)=[O+]1
absorption maximum (in CC#N): 376 nm
absorption maximum (in ClC(Cl)(Cl)Cl): 375 nm

O=C1c2cccc3c(C#CC#Cc4ccc5c6c(cccc46)C(=O)N(c4ccccc4)C5=O)ccc(c23)C(=O)N1c1ccccc1
absorption maximum (in ClCCl): 386 nm

c1ccc2c(c1)c1ccccc1n2-c1ccc2c(c1)c1ccccc1n2-c1cc2c3ccccc3n3c4ccccc4c(c1)c23
absorption maximum (in C1CCOC1): 344 nm

CCCCN(CCCC)c1ccc2c#cc3cc4c#cc5ccc(C(F)(F)F)cc5c#cc#cc5cc(N(CCCC)CCCC)ccc5c#cc4cc3c#cc3ccc(C(F)(F)F)cc3c#cc#cc2c1
absorption maximum (in ClCCl): 472 nm
